The structures appear in SMILES notation. pIC50: −log10 of the molar value. Where a name gives a salt, the structure may show the parent alone.

This is an account of results in patent publication US4755524A, “Novel phenolic thioethers as inhibitors of 5-lipoxygenase” (G. D. Searle & Co., priority 1987, dated 1988).

Experiment [1] relates to OA-induced bronchoconstriction in the Guinea Pig. Briefly: In vivo inhibition of ovalbumin-induced bronchoconstriction - Anti-allergy assay. The source says: (2) In vivo inhibition of ovalbumin-induced bronchoconstriction-Anti-allergy assay.
Adult, male Hartley guinea pigs (300-350 g, fasted) actively sensitized to ovalbumin are utilized in this assay.
Ovalbumin (OA) causes bronchoconstriction when administered to actively-sensitized guinea pigs. The observed bronchoconstriction is comprised of at least two distinct components:
(a) a cyclooxygenase-dependent, rapidly occurring bronchoconstriction mediated by thromboxane A2 and possibly other mediators and
(b) a 5-lipoxygenase dependent slow developing component, dependent upon the de novo generation of LTC4 and LTD4.
All test animals are pretreated with aspirin and pyrilamine to block the occurrence of the rapidly occurring component (a). Compounds which block the generation of LTC4 and LTD4 (5-lipoxygenase inhibitors) or antagonize the activity of LTC4 /LTD4 (leukotriene inhibitors) modulate the severity of the remaining component of this well-characterized anaphylactic response.
Test compounds are administered at screening doses of 50 mg/kg, i.v., or 100 mg/kg, i.g. A compound is rated active in this test if it causes a significant reduction (i.e., p 0.05, student's t-test) in intratracheal insufflation pressure induced by an i.v. injection of ovalbumin (3 mg/ml, i.v.), aspirin (5 mg/kg, i.v.) and propanolol (6 mg/kg i.p.). Treated animals are statistically compared to concurrent vehicle treated controls. Compounds rated active in inhibiting the production of the LTC4 /LTD4 allergic mediators through inhibition of 5-lipoxygenase according to this test are believed to play a significant role in bronchopulmonary allergic conditions, e.g., asthma.

A further experiment deals with T1, 5-lipoxygenase (Rattus norvegicus, UniProt P12527).
T1 construct: supernatant fraction of Rat Basophilic Leukemia Cell Homogenate (RBL-1) serves as a 5-lipoxygenase enzyme source; endogenous in cells; host or cells: RBL-1 (rat basophilic leukemia) cells, 100,000×g supernatant of homogenate
T1 sequence (P12527 1-673): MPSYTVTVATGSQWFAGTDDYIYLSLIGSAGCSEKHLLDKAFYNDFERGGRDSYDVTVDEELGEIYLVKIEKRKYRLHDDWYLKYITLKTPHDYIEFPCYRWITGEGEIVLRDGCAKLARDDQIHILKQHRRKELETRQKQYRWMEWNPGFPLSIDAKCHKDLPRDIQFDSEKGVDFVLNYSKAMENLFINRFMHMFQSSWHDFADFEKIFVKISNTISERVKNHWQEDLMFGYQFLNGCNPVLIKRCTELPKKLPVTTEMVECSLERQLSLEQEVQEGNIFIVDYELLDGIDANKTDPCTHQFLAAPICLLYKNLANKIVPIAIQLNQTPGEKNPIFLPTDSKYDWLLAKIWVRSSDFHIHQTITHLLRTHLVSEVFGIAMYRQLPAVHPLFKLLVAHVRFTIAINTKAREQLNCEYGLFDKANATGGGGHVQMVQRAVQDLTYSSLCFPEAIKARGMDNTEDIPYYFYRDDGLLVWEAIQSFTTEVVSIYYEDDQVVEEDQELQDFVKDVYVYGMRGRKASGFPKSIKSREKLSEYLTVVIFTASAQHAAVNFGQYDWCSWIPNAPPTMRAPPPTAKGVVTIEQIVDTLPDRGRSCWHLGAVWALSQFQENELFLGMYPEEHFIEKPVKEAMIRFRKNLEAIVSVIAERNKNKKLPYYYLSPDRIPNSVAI
The experiment is described as follows: Inhibition of 5-lipoxygenase, in vitro. The format is biochemical. Conditions: 100,000×g supernatant of RBL-1 homogenate, 14C-arachidonic acid, 5-HETE measured. Here is the method: The compounds of the invention are evaluated with respect to 5-lipoxygenaseinhibition according to the following assay procedures.
(1) Inhibition of 5-lipoxygenase, in vitro: anti-inflammatory, anti-allergyactivities.
The 100,000×g supernatant fraction of Rat Basophilic Leukemia Cell Homogenate (RBL-1) serves as a 5-lipoxygenase enzyme source. The enzyme is incubated with [(1-^14 C)-arachidonic acid and Ca++ in the presence and absence of test compound. The product of 5-lipoxygenase, 5-hydroxyeicosatetraenoic acid (5-HETE), is separated by thin-layer chromatography and measured by radioactivity. A compound inhibiting 5-HETE synthesis by 30% or more is considered active at that concentration.

For experiment [2] the following is noted: more potent than histamine; cited from earlier work.
Setting [3] is: i.g. @ 3 hr., vehicle 1 (20% DMSO in polyethylene glycol).
[4] abbreviates: i.g. @ 3 hr., vehicle 2 (peanut oil).

`CC(C)(C)c1cc(SCCSCC(=O)O)cc(C(C)(C)C)c1O` [Example 3, [[2-[[3,5-bis(1,1-dimethylethyl)-4-hydroxyphenyl]thio]ethyl]thio]acetic acid, monosodium salt]: in experiment [1] (i.g. @ 3 hr., vehicle 1 (20% DMSO in polyethylene glycol), monosodium salt), the “Antagonism of OA-induced bronchoconstriction in the Guinea Pig (min. effective dose)” value (“Antagonism” below) is 100 mg/kg.
For the molecule `COC(=O)CSCCSc1cc(C(C)(C)C)c(O)c(C(C)(C)C)c1` [Example 8, methyl[[2-[[3,5-bis(1,1-dimethylethyl)-4-hydroxyphenyl]thio]ethyl]thio]acetate], in experiment [1] (setting [3]), the “Antagonism” value was found to be 100 mg/kg.
Consider `CC(C)(C)c1cc(SCCOCC(=O)O)cc(C(C)(C)C)c1O` [Example 31, [2-[[3,5-bis(1,1-dimethylethyl)-4-hydroxyphenyl]thio]ethoxy]acetic acid], for which the pIC50 at 5-lipoxygenase was 5.14.
Take `CC(C)(C)c1cc(SCCSCCC(=O)O)cc(C(C)(C)C)c1O` [Example 13, 3-[[2-[[3,5-bis(1,1-dimethylethyl)-4-hydroxyphenyl]thio]ethyl]thio]propanoic acid]: in experiment [1] (i.g. @ 5 hr., vehicle 2 (peanut oil)), the “Antagonism” value is on record as 100 mg/kg. On 5-lipoxygenase, this molecule showed a pIC50 of 6.00.
For the molecule `COC(=O)CCCSCCSc1cc(C(C)(C)C)c(O)c(C(C)(C)C)c1` [Example 15, methyl 4-[[2-[[3,5-bis(1,1-dimethylethyl)-4-hydroxyphenyl]thio]ethyl]thio]butanoate], at 5-lipoxygenase, the negative-log IC50 (pIC50) was 6.92.
On to `CC(C)(C)c1cc(SCCSCC(=O)O)cc(C(C)(C)C)c1O` [Example 6, [[2-[[3,5-bis(1,1-dimethylethyl)-4-hydroxyphenyl]thio]ethyl]thio]acetic acid, 2,2',2"nitrilotris[ethanol] salt], for which the “Antagonism” value in experiment [1] (setting [3]) is 50 mg/kg. Moreover, the pIC50 against 5-lipoxygenase was 5.74.
As for `CCOC(=O)C[S+]([O-])CCSc1cc(C(C)(C)C)c(O)c(C(C)(C)C)c1` (centres unmarked) [Example 12, ethyl[[2-[[3,5-bis(1,1-dimethylethyl)-4-hydroxyphenyl]thio]ethyl]sulfinyl]acetate], the pIC50 against 5-lipoxygenase was 6.48.
As for `CCOC(=O)CS(=O)(=O)CCSc1cc(C(C)(C)C)c(O)c(C(C)(C)C)c1` [Example 17, ethyl[[2-[[3,5-bis(1,1-dimethylethyl)-4-hydroxyphenyl]thio]ethyl]sulfonyl]acetate], the pIC50 at 5-lipoxygenase is 6.52.
With `COC(=O)CSCC(O)CSc1cc(C(C)(C)C)c(O)c(C(C)(C)C)c1` (centres unmarked) [Example 42, methyl[[3-[[3,5-bis(1,1-dimethylethyl)-4-hydroxyphenyl]thio]-2-hydroxypropyl]thio]acetate], the “Antagonism” value in experiment [1] (i.g. @ 2 hr., vehicle 1 (20% DMSO in polyethylene glycol)) stood at 50 mg/kg. The negative-log IC50 (pIC50) against 5-lipoxygenase is 6.51.
With `Cc1cc(SCCSCC(=O)O)ccc1O` [Example 34, [[2-[(4-hydroxy-3-methylphenyl)thio]ethyl]thio]acetic acid, reference compound], in experiment [1] (setting [4]), the “Antagonism” value was 100 mg/kg. The same molecule had a pIC50 at 5-lipoxygenase of around 4.00.
For the molecule `CCCCC/C=C\C\C=C/C=C/C=C/[C@@H](SC[C@H](NC(=O)CC[C@H](N)C(=O)O)C(=O)NCC(=O)O)[C@@H](O)CCCC(=O)O` [LTC4], the “potency relative to histamine in causing long lasting bronchoconstricting effects” value in experiment [2] is given as “at least 100 times”.
For the molecule `COC(=O)CSC(C)C(C)Sc1cc(C(C)(C)C)c(O)c(C(C)(C)C)c1` (centres unmarked) [Example 19, methyl[[2-[[3,5-bis(1,1-dimethylethyl)-4-hydroxyphenyl]thio]-1-methylpropyl]thio]acetate], the “Antagonism” value in experiment [1] (setting [4]) came out at 32 mg/kg. Besides, the negative-log IC50 (pIC50) at 5-lipoxygenase was 6.62.
In the case of `O=C(O)CSCCSc1ccc(O)cc1` [Example 37, [[2-[(4-hydroxyphenyl)thio]ethyl]thio]acetic acid, reference compound], the “Antagonism” value in experiment [1] (setting [4]) is listed as 100 mg/kg. On 5-lipoxygenase, this molecule showed a pIC50 of 4.26.
As to `CC(C)(C)c1cc(SCCSCC(=O)O)cc(C(C)(C)C)c1O` [Example 4, [[2-[[3,5-bis(1,1-dimethylethyl)-4-hydroxyphenyl]thio]ethyl]thio]acetic acid], the “Antagonism” value in experiment [1] (setting [4]) is recorded as 100 mg/kg. For the same molecule, the pIC50 at 5-lipoxygenase was 5.85.
For `CC(SCC(=O)O)C(C)Sc1cc(C(C)(C)C)c(O)c(C(C)(C)C)c1` (centres unmarked) [Example 20, [[2-[[3,5-bis(1,1-dimethylethyl)-4-hydroxyphenyl]thio]-1-methylpropyl]thio]acetic acid], the “Antagonism” value in experiment [1] (setting [4]) worked out at 32 mg/kg. In addition, on 5-lipoxygenase, the negative-log IC50 (pIC50) was 6.09.
